Test results as given in ChEMBL document CHEMBL1201862, “PubChem BioAssay data set” (2004).
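Results reflect a 48-hour exposure of cells in 96-well plates to compound at five concentrations. The concentration for 50% growth inhibition is given as GI50.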 Activity calls are given as the source filed them. Rule as the data show it: active = GI50 up to about 1.1 µM and inactive = higher.

Experiments:
Assay in all cases: NCI tumour cell line growth inhibition, 48 h
[1] = system: A498
[2] = system: A549
[3] = system: ACHN
[4] = system: CCRF-CEM
[5] = system: COLO 205
[6] = system: DU-145
[7] = system: HCC 2998
[8] = system: HCT-116
[9] = system: HOP-92
[10] = system: HT-29
[11] = system: Hs-578T
[12] = system: K562
[13] = system: KM12
[14] = system: LOX IMVI
[15] = system: MCF7
[16] = system: MDA-N
[17] = system: MOLT-4
[18] = system: NCI-H226
[19] = system: NCI-H460
[20] = system: NCI-H522
[21] = system: NCI/ADR-RES
[22] = system: OVCAR-4
[23] = system: OVCAR-8
[24] = system: PC-3
[25] = system: RXF 393
[26] = system: SF-268
[27] = system: SF-295
[28] = system: SK-MEL-28
[29] = system: SK-MEL-5
[30] = system: SK-OV-3
[31] = system: SN12C
[32] = system: SNB-19
[33] = system: SNB-75
[34] = system: SR
[35] = system: SW-620
[36] = system: TK-10
[37] = system: U-251
[38] = system: UACC-257
[39] = system: UO-31

Measured: GI50

Cc1ccc(S(=O)(=O)NCCSCCSCCNS(=O)(=O)c2ccc(C)cc2)cc1
inactive: [1] 10 µM | [2] 30.5 µM | [3] 48.6 µM | [4] 36.9 µM | [5] 19.4 µM | [6] 51.2 µM | [7] 39.4 µM | [8] 34.7 µM | [9] 22 µM | [10] 28.6 µM | [11] 47.2 µM | [12] 48.6 µM | [13] 25.6 µM | [14] 25.4 µM | [15] 38.9 µM | [16] 56 µM | [17] 34 µM | [18] 49 µM | [19] 25.4 µM | [20] 62.5 µM | [21] 24 µM | [22] 34.8 µM | [23] 47.2 µM | [24] 22.6 µM | [25] 56.2 µM | [26] 24 µM | [27] 45.8 µM | [28] > 100 µM | [29] 4.7 µM | [30] 18.4 µM | [31] 47.4 µM | [32] 63.4 µM | [33] 20.8 µM | [34] 37.2 µM | [35] 44.6 µM | [36] 53.2 µM | [37] 4.6 µM | [38] 34.4 µM | [39] 34.1 µM
